Test results from the CheMixHub viscosity set.

Test: xn = mol fraction of the nth substance listed

CC(=O)O.NCCO + CS(C)=O
298.15 K, 101.3 kPa
Settings | viscosity [mPa·s]
x2 = 0.069 | 1634
x2 = 0.143 | 1064
x2 = 0.223 | 420
x2 = 0.311 | 375.1
x2 = 0.404 | 139.5
x2 = 0.502 | 66.42
x2 = 0.612 | 29.5
x2 = 0.732 | 12.73
x2 = 0.852 | 6.71

C1CCCCCCC1 + Cc1ccccc1
303 K, 101 kPa
Settings | viscosity [mPa·s]
x2 = 0.0411 | 1.726
x2 = 0.1605 | 1.259
x2 = 0.3113 | 1.024
x2 = 0.4874 | 0.8342
x2 = 0.6192 | 0.7126
x2 = 0.7463 | 0.627
x2 = 0.8614 | 0.5716
x2 = 0.9174 | 0.5484
x2 = 0.973 | 0.5311

CCCCC + C1CCOC1
viscosity [mPa·s], 101 kPa
Settings | x2 = 0.1001 | x2 = 0.2001 | x2 = 0.3001 | x2 = 0.4001 | x2 = 0.5001 | x2 = 0.6001 | x2 = 0.7001 | x2 = 0.8001 | x2 = 0.9001
293.15 K | 0.2331 | 0.2498 | 0.2688 | 0.2894 | 0.3116 | 0.3371 | 0.3686 | 0.4034 | 0.4485
298.15 K | 0.2241 | 0.2405 | 0.258 | 0.2768 | 0.2977 | 0.3204 | 0.347 | 0.38 | 0.4212

CCCCCCCO + c1ccccc1
viscosity [mPa·s], 100 kPa
Settings | x2 = 0.0864 | x2 = 0.1561 | x2 = 0.2397 | x2 = 0.3469 | x2 = 0.4396 | x2 = 0.5661 | x2 = 0.6446 | x2 = 0.7517 | x2 = 0.8493 | x2 = 0.9561
293.15 K | 5.514 | 4.58 | 3.709 | 2.802 | 2.132 | 1.412 | 1.117 | 0.875 | 0.766 | 0.681
303.15 K | 3.992 | 3.302 | 2.668 | 2.018 | 1.568 | 1.053 | 0.859 | 0.703 | 0.625 | 0.573
313.15 K | 2.947 | 2.439 | 1.973 | 1.501 | 1.172 | 0.822 | 0.679 | 0.573 | 0.525 | 0.498
323.15 K | 2.279 | 1.918 | 1.573 | 1.203 | 0.942 | 0.665 | 0.556 | 0.479 | 0.442 | 0.437

CCCCCCCO + C1CCCCC1
viscosity [mPa·s]
Settings | 293.15 K | 303.15 K | 313.15 K | 323.15 K
100 kPa, x2 = 0.0812 | 6.08 | 4.38 | 3.22 | 2.46
100 kPa, x2 = 0.1614 | 5.3 | 3.79 | 2.82 | 2.16
100 kPa, x2 = 0.2386 | 4.61 | 3.28 | 2.47 | 1.91
100 kPa, x2 = 0.3496 | 3.76 | 2.69 | 2.05 | 1.59
100 kPa, x2 = 0.4387 | 3.17 | 2.28 | 1.75 | 1.38
100 kPa, x2 = 0.5596 | 2.47 | 1.81 | 1.41 | 1.12
100 kPa, x2 = 0.6491 | 2.02 | 1.52 | 1.18 | 0.95
100 kPa, x2 = 0.7411 | 1.64 | 1.27 | 1 | 0.82
100 kPa, x2 = 0.8503 | 1.28 | 1.03 | 0.83 | 0.7
100 kPa, x2 = 0.9397 | 1.07 | 0.87 | 0.72 | 0.62
101.33 kPa, x1 = 0.0996 | – | 0.9648 | – | –
101.33 kPa, x1 = 0.197 | – | 1.134 | – | –
101.33 kPa, x1 = 0.3024 | – | 1.357 | – | –
101.33 kPa, x1 = 0.3923 | – | 1.585 | – | –
101.33 kPa, x1 = 0.5062 | – | 1.936 | – | –
101.33 kPa, x1 = 0.6052 | – | 2.307 | – | –
101.33 kPa, x1 = 0.7008 | – | 2.749 | – | –
101.33 kPa, x1 = 0.795 | – | 3.258 | – | –
101.33 kPa, x1 = 0.884 | – | 3.84 | – | –
